As usually defined, the pKi is −log10 of the Ki, conventionally taken in molar units. The inhibition is the drop in the measured response relative to a control, in per cent.

In data set [1] the target is Alpha-2B adrenergic receptor (Homo sapiens, UniProt P18089). Briefly: GPCRScan assay: inhibition of Alpha2B. The arrangement: radioligand conc. used [nm] 1.5 – 2.0, parental cells HEKT.
Data set [2] addresses Muscarinic acetylcholine receptor M5 (Homo sapiens) (UniProt P08912). The note with it: Compound concentration 10.0 uM.
In data set [3] the target is T1, Sodium-dependent serotonin transporter (Homo sapiens, UniProt P31645). Briefly: GPCRScan assay: inhibition of SERT. The arrangement: radioligand conc. used [nm] 1.5 – 2.0, parental cells stable HEK.
Target sequence in this assay (P31645 whole entry): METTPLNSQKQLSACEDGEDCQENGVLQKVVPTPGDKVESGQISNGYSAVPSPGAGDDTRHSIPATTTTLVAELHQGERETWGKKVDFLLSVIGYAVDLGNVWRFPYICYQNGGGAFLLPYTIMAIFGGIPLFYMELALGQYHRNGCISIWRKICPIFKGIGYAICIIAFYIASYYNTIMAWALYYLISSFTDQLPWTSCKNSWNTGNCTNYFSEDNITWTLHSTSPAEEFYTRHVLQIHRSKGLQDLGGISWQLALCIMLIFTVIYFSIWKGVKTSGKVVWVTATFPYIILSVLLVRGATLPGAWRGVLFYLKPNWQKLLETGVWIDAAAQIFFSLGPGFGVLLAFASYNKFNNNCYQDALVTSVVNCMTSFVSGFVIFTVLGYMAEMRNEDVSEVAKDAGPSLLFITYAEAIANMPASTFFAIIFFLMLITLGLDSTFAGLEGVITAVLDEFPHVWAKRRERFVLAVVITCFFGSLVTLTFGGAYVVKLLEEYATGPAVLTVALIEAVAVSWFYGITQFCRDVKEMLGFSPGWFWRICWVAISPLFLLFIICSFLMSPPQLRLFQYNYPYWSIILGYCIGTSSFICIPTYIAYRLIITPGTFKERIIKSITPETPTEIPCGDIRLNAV
The target in data set [4] is Beta-3 adrenergic receptor (Homo sapiens) (UniProt P13945). The note with it: Compound concentration 10.0 uM.
Data set [5] deals with Sigma intracellular receptor 2 (Homo sapiens, UniProt Q5BJF2). Briefly: GPCRScan assay: inhibition of Sigma 2. The arrangement: radioligand conc. used [nm] 5.0, parental cells HEKT.
For data set [6], the target named is Adenosine receptor A3 (Homo sapiens) (UniProt P0DMS8). Kind of data set: hA3 Cerep panel.
Data set [7] concerns the target T2, Muscarinic acetylcholine receptor M2 (Homo sapiens) (UniProt P08172).
T2 sequence (whole entry): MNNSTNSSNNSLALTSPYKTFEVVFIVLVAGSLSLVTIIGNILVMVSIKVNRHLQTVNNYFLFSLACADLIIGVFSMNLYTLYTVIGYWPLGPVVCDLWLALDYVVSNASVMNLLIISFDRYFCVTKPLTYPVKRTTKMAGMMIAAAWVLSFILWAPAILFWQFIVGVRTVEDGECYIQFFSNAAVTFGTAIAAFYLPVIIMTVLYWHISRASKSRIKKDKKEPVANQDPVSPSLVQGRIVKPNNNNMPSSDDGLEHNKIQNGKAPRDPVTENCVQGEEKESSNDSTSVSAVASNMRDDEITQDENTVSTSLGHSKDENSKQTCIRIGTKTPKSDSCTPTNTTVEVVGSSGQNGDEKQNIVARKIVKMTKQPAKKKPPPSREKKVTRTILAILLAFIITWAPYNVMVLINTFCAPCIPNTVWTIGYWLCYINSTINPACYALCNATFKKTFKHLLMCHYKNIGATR
Kind of data set: hM2 Cerep panel.

Data set [8] deals with T1, Sodium-dependent serotonin transporter. Kind of data set: h5HTT Cerep panel.
The target in data set [9] is B2 bradykinin receptor (Homo sapiens) (UniProt P30411). Kind of data set: hBK2 Cerep panel.
Data set [10] has as its target C-C chemokine receptor type 1 (Homo sapiens) (UniProt P32246). Kind of data set: hCCR1 Cerep panel.
Data set [11] deals with D(3) dopamine receptor (Homo sapiens) (UniProt P35462). Particulars: Compound concentration 10.0 uM.
The species named for data set [12] is Rattus norvegicus. Kind of data set: rCaCH (nitrendipine) Cerep panel.
For data set [13], the species on record is Rattus norvegicus. Briefly: rCLCH Cerep panel.
Data set [14] has as its target Vasopressin V1a receptor (Homo sapiens) (UniProt P37288). Kind of data set: hV1a Cerep panel.
The target of data set [15] is Endothelin-1 receptor (Homo sapiens) (UniProt P25101). Kind of data set: hETA Cerep panel.
Data set [16] has as its target Substance-K receptor (Homo sapiens) (UniProt P21452). Kind of data set: hNK2 Cerep panel.
Data set [17] has as its target Neurotensin receptor type 1 (Homo sapiens) (UniProt P30989). Kind of data set: hNT1 Cerep panel.
The target of data set [18] is C-X-C chemokine receptor type 2 (Homo sapiens) (UniProt P25025). Kind of data set: hBCXCR2 Cerep panel.
The species named for data set [19] is Rattus norvegicus. Briefly: rKCH Cerep panel.
In data set [20] the target is Neuropeptide Y receptor type 1 (Homo sapiens) (UniProt P25929). Kind of data set: hNPY1 Cerep panel.
Data set [21] concerns the target Neuropeptide Y receptor type 2 (Homo sapiens) (UniProt P49146). Kind of data set: hNPY2 Cerep panel.
The target of data set [22] is 5-hydroxytryptamine receptor 6 (Homo sapiens) (UniProt P50406). Kind of data set: h5HT6 Cerep panel.
The species entered for data set [23] is Rattus norvegicus. Briefly: rSKCaCH Cerep panel.
In data set [24] the target is T3, 5-hydroxytryptamine receptor 1A (Homo sapiens) (UniProt P08908).
T3 sequence (whole entry): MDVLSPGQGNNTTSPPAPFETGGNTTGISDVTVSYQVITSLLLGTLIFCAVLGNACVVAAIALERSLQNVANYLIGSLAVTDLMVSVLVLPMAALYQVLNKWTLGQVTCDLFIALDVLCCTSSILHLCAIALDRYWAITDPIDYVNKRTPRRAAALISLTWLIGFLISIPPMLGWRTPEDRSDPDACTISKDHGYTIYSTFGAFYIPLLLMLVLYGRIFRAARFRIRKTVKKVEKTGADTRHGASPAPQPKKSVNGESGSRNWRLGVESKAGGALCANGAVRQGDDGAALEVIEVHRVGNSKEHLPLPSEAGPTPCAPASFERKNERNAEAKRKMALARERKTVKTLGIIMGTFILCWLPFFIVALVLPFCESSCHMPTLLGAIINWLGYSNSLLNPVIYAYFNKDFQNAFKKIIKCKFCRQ
Briefly: h5HT1A Cerep panel.

The target of data set [25] is Voltage-gated inwardly rectifying potassium channel KCNH2 (Homo sapiens, UniProt Q12809). Kind of data set: hERG Cerep panel. (hERG is a cardiac potassium channel; its block is linked to QT prolongation.)
The target of data set [26] is 5-hydroxytryptamine receptor 2B (Homo sapiens) (UniProt P41595). Kind of data set: h5HT2B Cerep panel.
In data set [27] the target is Sodium-dependent dopamine transporter (Homo sapiens, UniProt Q01959). Kind of data set: hDAT Cerep panel.
Data set [28] concerns the target D(2) dopamine receptor (Homo sapiens) (UniProt P14416). Kind of data set: hD2S Cerep panel.
Data set [29] deals with Sodium-dependent noradrenaline transporter (Homo sapiens) (UniProt P23975). Briefly: hNET Cerep panel.
Data set [30] deals with 5-hydroxytryptamine receptor 1B (Rattus norvegicus) (UniProt P28564). Kind of data set: r5HT1B Cerep panel.
Data set [31] deals with Adenosine receptor A2a (Homo sapiens) (UniProt P29274). Kind of data set: hA2A Cerep panel.
Data set [32] addresses Cholecystokinin receptor type A (Homo sapiens) (UniProt P32238). Kind of data set: hCCKA Cerep panel.
Data set [33] has as its target Histamine H2 receptor (Homo sapiens) (UniProt P25021). Particulars: Compound concentration 10.0 uM.
The target of data set [34] is Vasoactive intestinal polypeptide receptor 1 (Homo sapiens) (UniProt P32241). Briefly: hVPAC1 Cerep panel.
Data set [35] deals with Neuromedin-K receptor (Homo sapiens) (UniProt P29371). Briefly: hNK3 Cerep panel.
Data set [36] is filed under the species Rattus norvegicus. Briefly: rBZD Cerep panel.

pKi: −log10 of the molar value.

Chain of Sigma intracellular receptor 2 (Q5BJF2 whole entry): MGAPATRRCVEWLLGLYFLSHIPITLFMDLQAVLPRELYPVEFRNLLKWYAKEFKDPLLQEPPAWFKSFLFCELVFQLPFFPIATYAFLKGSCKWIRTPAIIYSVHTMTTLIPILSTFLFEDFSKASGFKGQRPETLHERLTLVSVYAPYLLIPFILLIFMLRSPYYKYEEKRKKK
Chain of Alpha-2B adrenergic receptor (P18089 whole entry): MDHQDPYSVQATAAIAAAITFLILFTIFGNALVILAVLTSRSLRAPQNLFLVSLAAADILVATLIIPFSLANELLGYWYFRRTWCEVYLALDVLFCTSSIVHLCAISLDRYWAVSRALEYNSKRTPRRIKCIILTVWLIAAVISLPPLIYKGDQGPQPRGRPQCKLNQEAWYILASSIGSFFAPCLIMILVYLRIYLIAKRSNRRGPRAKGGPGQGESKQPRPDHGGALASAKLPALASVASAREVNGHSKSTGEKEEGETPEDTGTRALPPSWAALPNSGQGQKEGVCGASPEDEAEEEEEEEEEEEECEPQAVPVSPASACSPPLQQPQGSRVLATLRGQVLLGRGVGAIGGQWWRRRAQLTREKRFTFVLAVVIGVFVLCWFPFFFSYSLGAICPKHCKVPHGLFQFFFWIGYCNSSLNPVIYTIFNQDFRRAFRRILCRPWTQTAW
Chain of Neurotensin receptor type 1 (Homo sapiens) (P30989 whole entry): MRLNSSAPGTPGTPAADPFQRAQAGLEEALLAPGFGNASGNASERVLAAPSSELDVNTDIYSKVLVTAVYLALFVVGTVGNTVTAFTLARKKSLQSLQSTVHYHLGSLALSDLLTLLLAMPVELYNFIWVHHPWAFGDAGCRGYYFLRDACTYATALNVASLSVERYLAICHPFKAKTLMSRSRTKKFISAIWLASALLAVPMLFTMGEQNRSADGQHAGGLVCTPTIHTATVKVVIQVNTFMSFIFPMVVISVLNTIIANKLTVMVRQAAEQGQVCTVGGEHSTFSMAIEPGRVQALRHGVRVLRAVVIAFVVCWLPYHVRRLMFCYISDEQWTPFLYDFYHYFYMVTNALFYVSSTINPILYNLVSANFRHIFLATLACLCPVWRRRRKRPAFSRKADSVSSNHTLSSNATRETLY
Chain of C-X-C chemokine receptor type 2 (Homo sapiens) (P25025 whole entry): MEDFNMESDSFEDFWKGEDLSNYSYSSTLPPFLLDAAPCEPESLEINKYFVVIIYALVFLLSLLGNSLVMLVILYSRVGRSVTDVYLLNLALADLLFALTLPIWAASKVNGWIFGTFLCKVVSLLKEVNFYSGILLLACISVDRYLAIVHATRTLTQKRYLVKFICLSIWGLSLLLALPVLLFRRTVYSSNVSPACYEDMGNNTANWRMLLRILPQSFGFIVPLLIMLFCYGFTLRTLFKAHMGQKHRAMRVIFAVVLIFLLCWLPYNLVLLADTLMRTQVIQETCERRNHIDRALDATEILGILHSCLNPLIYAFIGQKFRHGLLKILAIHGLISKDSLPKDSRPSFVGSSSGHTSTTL
Chain of 5-hydroxytryptamine receptor 2B (Homo sapiens) (P41595 whole entry): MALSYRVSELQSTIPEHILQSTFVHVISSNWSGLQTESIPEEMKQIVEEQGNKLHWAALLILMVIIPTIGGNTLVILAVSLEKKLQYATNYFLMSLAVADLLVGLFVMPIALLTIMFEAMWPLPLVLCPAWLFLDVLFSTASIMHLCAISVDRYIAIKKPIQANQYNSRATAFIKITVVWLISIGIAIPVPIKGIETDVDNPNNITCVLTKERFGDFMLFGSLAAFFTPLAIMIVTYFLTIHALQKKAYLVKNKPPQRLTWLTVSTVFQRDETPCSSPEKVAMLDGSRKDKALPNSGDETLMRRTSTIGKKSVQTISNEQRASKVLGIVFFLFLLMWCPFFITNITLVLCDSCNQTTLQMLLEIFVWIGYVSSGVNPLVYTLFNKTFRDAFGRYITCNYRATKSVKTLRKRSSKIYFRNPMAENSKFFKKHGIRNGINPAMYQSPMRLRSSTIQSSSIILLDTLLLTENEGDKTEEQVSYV
Chain of Adenosine receptor A3 (Homo sapiens) (P0DMS8 whole entry): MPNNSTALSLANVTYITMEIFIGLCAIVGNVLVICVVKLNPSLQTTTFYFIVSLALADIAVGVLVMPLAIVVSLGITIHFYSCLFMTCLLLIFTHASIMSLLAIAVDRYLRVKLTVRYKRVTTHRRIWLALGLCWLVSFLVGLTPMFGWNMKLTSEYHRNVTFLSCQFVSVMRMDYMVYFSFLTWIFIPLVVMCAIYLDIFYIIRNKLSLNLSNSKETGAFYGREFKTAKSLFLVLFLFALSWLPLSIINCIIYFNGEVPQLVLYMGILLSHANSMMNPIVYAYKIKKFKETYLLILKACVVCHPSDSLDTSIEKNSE
Chain of Substance-K receptor (Homo sapiens) (P21452 whole entry): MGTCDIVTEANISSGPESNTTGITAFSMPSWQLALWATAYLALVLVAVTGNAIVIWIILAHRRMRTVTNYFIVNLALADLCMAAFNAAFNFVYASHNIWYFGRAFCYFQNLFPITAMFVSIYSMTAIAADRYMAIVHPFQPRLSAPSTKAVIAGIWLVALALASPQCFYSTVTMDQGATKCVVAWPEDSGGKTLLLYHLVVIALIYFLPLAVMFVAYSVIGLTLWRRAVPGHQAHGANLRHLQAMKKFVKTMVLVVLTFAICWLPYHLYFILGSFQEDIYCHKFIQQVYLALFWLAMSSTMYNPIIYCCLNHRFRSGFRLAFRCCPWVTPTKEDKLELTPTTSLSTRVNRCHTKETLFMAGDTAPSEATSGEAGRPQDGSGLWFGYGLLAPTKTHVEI
Chain of Vasopressin V1a receptor (Homo sapiens) (P37288 whole entry, looked up): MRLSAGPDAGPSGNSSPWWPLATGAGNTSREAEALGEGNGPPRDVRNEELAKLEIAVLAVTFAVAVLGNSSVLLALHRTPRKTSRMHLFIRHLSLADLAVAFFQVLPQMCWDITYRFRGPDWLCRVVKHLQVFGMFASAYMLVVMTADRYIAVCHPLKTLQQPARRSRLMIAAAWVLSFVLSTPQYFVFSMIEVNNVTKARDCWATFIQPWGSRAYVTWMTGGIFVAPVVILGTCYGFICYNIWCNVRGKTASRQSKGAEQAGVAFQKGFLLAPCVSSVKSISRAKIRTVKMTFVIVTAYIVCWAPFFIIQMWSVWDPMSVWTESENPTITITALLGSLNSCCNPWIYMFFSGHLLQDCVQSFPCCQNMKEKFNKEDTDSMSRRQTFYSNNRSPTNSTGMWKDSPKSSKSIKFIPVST
Chain of Histamine H2 receptor (Homo sapiens) (P25021 whole entry): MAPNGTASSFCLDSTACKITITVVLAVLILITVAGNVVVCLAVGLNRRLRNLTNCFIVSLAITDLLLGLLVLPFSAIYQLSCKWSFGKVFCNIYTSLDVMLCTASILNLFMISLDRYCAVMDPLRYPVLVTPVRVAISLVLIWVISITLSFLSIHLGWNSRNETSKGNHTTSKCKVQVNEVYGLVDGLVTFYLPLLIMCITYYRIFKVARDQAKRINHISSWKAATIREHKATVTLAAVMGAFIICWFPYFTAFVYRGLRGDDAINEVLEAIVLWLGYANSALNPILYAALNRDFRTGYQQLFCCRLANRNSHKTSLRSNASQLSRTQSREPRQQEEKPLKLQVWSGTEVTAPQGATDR
Chain of Sodium-dependent noradrenaline transporter (Homo sapiens) (P23975 whole entry): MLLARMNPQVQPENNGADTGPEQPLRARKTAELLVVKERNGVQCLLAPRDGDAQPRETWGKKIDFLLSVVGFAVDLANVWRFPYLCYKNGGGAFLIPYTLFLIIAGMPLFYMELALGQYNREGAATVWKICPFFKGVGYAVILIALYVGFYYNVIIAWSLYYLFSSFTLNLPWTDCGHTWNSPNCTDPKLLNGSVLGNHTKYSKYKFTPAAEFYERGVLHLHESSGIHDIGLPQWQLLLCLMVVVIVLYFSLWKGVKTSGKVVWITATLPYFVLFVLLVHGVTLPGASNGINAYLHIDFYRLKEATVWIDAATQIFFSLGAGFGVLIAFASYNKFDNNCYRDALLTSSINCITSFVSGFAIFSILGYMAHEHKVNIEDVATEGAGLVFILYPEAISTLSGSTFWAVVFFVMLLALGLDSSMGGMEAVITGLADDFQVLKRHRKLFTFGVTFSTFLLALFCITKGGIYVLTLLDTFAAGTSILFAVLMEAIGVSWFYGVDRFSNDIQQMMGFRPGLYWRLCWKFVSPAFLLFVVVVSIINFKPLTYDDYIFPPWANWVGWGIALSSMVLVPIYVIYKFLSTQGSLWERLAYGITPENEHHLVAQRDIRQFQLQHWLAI

For the compound `CC(=O)Nc1nc(CN2CCC[C@H](Cc3cc(C)nc(C)c3)C2)cs1` [JNJ-73924149], the pKi is 5.43 in data set [1] (read-out: Ki), 5.58 in data set [3] (read-out: Ki) and 5.85 in [5] (read-out: Ki). In addition, the Ki in [1] (read-out: pKi (converted)) is 3670 nM; in data set [3] (read-out: pKi (converted)) it was 2570 nM; in data set [5] (read-out: pKi (converted)), 1350 nM. Moreover, the inhibition in [2] was -6.15%; in data set [4], -8.59%.
`CC(=O)Nc1ncc(CN2CCC[C@H](Cc3cc(C)nc(C)c3)C2)s1` [JNJ-65355394]: the effect was 16% in [6]; 25.4% in data set [7]; -7.05% in data set [8]; 10.8% in [9]; -1.85% in data set [10]; 14% in [12]. In addition, the effect in data set [13] is -5.7%; in data set [14], 7.65%; in data set [15], 3.6%; in [16], 4.5%; in [17] it was 4.15%; in [18], 0.85%. Moreover, the effect in data set [19] is 1%; in data set [20], -7.35%; in data set [21], -2.7%; in data set [22], 14.2%; in data set [23] it was 35.4%; in data set [24] it was 9.45%. Also, the effect in data set [25] is 10%; in [26] it was 6.3%; in data set [27], 19.3%; in data set [28], 10.5%; in data set [29] it was 5.75%; in data set [30] it was -9.65%. In addition, the effect in [31] is 4.9%; in [32], -22%; in [34], -10.1%; in data set [35], 7%; in data set [36] it was -16.6%. For the same compound, the values for the inhibition in data set [11] and in data set [33] were 10.3% and 3.45%, respectively.
